Experimental data taken from ChEMBL document CHEMBL3612056, “Mechanism studies on anti-HepG2 cell proliferation of phenanthroline derivatives as G-quadruplex DNA stabilizers” (Bioorg Med Chem Lett, 2015).
Each block holds one compound with its values, some of them ahead of it. Activity calls are given as the source filed them. The rule behind the calls is not given here.

Columns and labels:
[1] = system: HepG2; experiment: Induction of apoptosis in human HepG2 cells assessed as necrotic cells levels at 8 uM incubated for 3 days by Annexin-V-FITC and propidium iodide staining based flow cytometry (reference value: 3.8%); type: functional
[2] = system: HepG2; experiment: Induction of cell cycle arrest in human HepG2 cells assessed as accumulation at G2/M phase at 8 uM incubated for 2 days by propidium iodide staining based flow cytometry method (reference value: 21.39%); type: functional
[3] = system: HepG2; experiment: Induction of apoptosis in human HepG2 cells by Annexin-V-FITC and propidium iodide staining based flow cytometry; type: functional, cell-based
[4] = system: MCF7; experiment: Cytotoxicity against human MCF7 cells assessed as reduction in cell viability incubated for 72 hrs by MTT assay; type: functional, cell-based; details: MCF7, 72 h
[5] = system: HepG2; experiment: Inhibition of telomeric DNA elongation in human HepG2 cells at 0.5 uM incubated for 17 days by telomere restriction fragment length assay; type: functional, cell-based
[6] = system: HepG2; experiment: Reduction in Sp1 protein expression in human HepG2 cells at 8 and 12 uM incubated for 2 days by Western blot method; type: functional, cell-based
[7] = system: HepG2; experiment: Effect on TERT gene expression in human HepG2 cells at 2 to 16 uM incubated for 2 days by RT-PCR method; type: functional, cell-based
[8] = system: HepG2; experiment: Reduction in cyclin D1/CDK4 protein expression in human HepG2 cells incubated for 2 days by Western blot method; type: functional, cell-based
[9] = system: HepG2; experiment: Induction of apoptosis in human HepG2 cells assessed as viable cells levels at 8 uM incubated for 3 days by Annexin-V-FITC and propidium iodide staining based flow cytometry (reference value: 89.3%); type: functional
[10] = system: HepG2; experiment: Induction of apoptosis in human HepG2 cells assessed as early apoptotic cells levels at 12 uM incubated for 2 days by Annexin-V-FITC and propidium iodide staining based flow cytometry (reference value: 0.3%); type: functional
[11] = system: HepG2; experiment: Induction of cell cycle arrest in human HepG2 cells assessed as reduction in accumulation at G2/M phase incubated for 2 days by propidium iodide staining based flow cytometry method; type: functional
[12] = system: HepG2; experiment: Induction of cell cycle arrest in human HepG2 cells assessed as accumulation at S phase at 8 uM incubated for 2 days by propidium iodide staining based flow cytometry method (reference value: 27.05%); type: functional
[13] = system: HeLa; experiment: Cytotoxicity against human HeLa cells assessed as reduction in cell viability incubated for 72 hrs by MTT assay; type: functional, cell-based
[14] = system: HepG2; experiment: Induction of apoptosis in human HepG2 cells assessed as necrotic cells levels at 12 uM incubated for 2 days by Annexin-V-FITC and propidium iodide staining based flow cytometry (reference value: 1.4%); type: functional
[15] = system: HepG2; experiment: Induction of cell cycle arrest in human HepG2 cells assessed as reduction in accumulation at S phase incubated for 2 days by propidium iodide staining based flow cytometry method; type: functional
[16] = system: HepG2; experiment: Induction of apoptosis in human HepG2 cells assessed as viable cells levels at 8 uM incubated for 2 days by Annexin-V-FITC and propidium iodide staining based flow cytometry (reference value: 97.9%); type: functional
[17] = system: HepG2; experiment: Induction of apoptosis in human HepG2 cells assessed as viable cells levels at 12 uM incubated for 2 days by Annexin-V-FITC and propidium iodide staining based flow cytometry (reference value: 97.9%); type: functional
[18] = system: HepG2; experiment: Induction of cell cycle arrest in human HepG2 cells assessed as accumulation at S phase at 4 uM incubated for 2 days by propidium iodide staining based flow cytometry method (reference value: 27.05%); type: functional
[19] = system: HepG2; experiment: Induction of cell cycle arrest in human HepG2 cells assessed as accumulation at G0/G1 phase at 4 uM incubated for 2 days by propidium iodide staining based flow cytometry method (reference value: 51.56%); type: functional
[20] = system: HepG2; experiment: Cytotoxicity against human HepG2 cells assessed as reduction in cell viability incubated for 72 hrs by MTT assay; type: functional, cell-based; details: HepG2, 72 h
[21] = system: HepG2; experiment: Induction of apoptosis in human HepG2 cells assessed as early apoptotic cells levels at 12 uM incubated for 3 days by Annexin-V-FITC and propidium iodide staining based flow cytometry (reference value: 2.9%); type: functional
[22] = system: HepG2; experiment: Induction of apoptosis in human HepG2 cells assessed as late apoptotic cells levels at 8 uM incubated for 2 days by Annexin-V-FITC and propidium iodide staining based flow cytometry (reference value: 0.5%); type: functional
[23] = system: HepG2; experiment: Induction of apoptosis in human HepG2 cells assessed as early apoptotic cells levels at 8 uM incubated for 3 days by Annexin-V-FITC and propidium iodide staining based flow cytometry (reference value: 2.9%); type: functional
[24] = system: HepG2; experiment: Induction of cell cycle arrest in human HepG2 cells assessed as increase in accumulation at G0/G1 phase incubated for 2 days by propidium iodide staining based flow cytometry method; type: functional
[25] = system: HepG2; experiment: Induction of apoptosis in human HepG2 cells assessed as necrotic cells levels at 8 uM incubated for 2 days by Annexin-V-FITC and propidium iodide staining based flow cytometry (reference value: 1.4%); type: functional
[26] = system: HepG2; experiment: Inhibition of cell proliferation of human HepG2 cells at 0.5 uM incubated for 12 days by long-term cell growth inhibition assay; type: functional, cell-based
[27] = system: HepG2; experiment: Reduction in cyclin B1/CDK1 protein expression in human HepG2 cells incubated for 2 days by Western blot method; type: functional, cell-based
[28] = system: HepG2; experiment: Reduction in c-Myc protein expression in human HepG2 cells at 0.5 to 20 uM incubated for 2 days by Western blot method; type: functional, cell-based
[29] = system: HepG2; experiment: Increase in p53 protein expression in human HepG2 cells at 8 and 12 uM incubated for 2 days by Western blot method; type: functional, cell-based
[30] = system: HepG2; experiment: Induction of cell cycle arrest in human HepG2 cells assessed as accumulation at G2/M phase at 4 uM incubated for 2 days by propidium iodide staining based flow cytometry method (reference value: 21.39%); type: functional
[31] = Stabilization of c-myc promoter G-quadruplex DNA (unknown origin)
[32] = system: HepG2; experiment: Induction of apoptosis in human HepG2 cells assessed as viable cells levels at 12 uM incubated for 3 days by Annexin-V-FITC and propidium iodide staining based flow cytometry (reference value: 89.3%); type: functional
[33] = system: HepG2; experiment: Reduction in TERT protein expression in human HepG2 cells at 0.5 to 20 uM incubated for 2 days by Western blot method; type: functional, cell-based
[34] = system: HepG2; experiment: Induction of apoptosis in human HepG2 cells assessed as early apoptotic cells levels at 8 uM incubated for 2 days by Annexin-V-FITC and propidium iodide staining based flow cytometry (reference value: 0.3%); type: functional
[35] = system: HepG2; experiment: Reduction in c-Myc gene expression in human HepG2 cells at 2 to 16 uM incubated for 2 days by RT-PCR method; type: functional, cell-based
[36] = system: HepG2; experiment: Induction of apoptosis in human HepG2 cells assessed as late apoptotic cells levels at 8 uM incubated for 3 days by Annexin-V-FITC and propidium iodide staining based flow cytometry (reference value: 3.9%); type: functional
[37] = system: HepG2; experiment: Induction of apoptosis in human HepG2 cells assessed as necrotic cells levels at 12 uM incubated for 3 days by Annexin-V-FITC and propidium iodide staining based flow cytometry (reference value: 3.8%); type: functional
[38] = system: HepG2; experiment: Induction of apoptosis in human HepG2 cells assessed as late apoptotic cells levels at 12 uM incubated for 2 days by Annexin-V-FITC and propidium iodide staining based flow cytometry (reference value: 0.5%); type: functional
[39] = system: DNA; experiment: Stabilization of human telomere promoter G-quadruplex DNA (unknown origin); type: nucleic-acid assay
[40] = system: HepG2; experiment: Induction of apoptosis in human HepG2 cells assessed as late apoptotic cells levels at 12 uM incubated for 3 days by Annexin-V-FITC and propidium iodide staining based flow cytometry (reference value: 3.9%); type: functional
[41] = system: HepG2; experiment: Induction of cell cycle arrest in human HepG2 cells assessed as accumulation at G0/G1 phase at 8 uM incubated for 2 days by propidium iodide staining based flow cytometry method (reference value: 51.56%); type: functional
[42] = system: HepG2; experiment: Reduction in c-Myc protein expression in human HepG2 cells at 2 to 12 uM incubated for 2 days by Western blot method; type: functional, cell-based
[43] = system: HepG2; experiment: Induction of cell cycle arrest in human HepG2 cells assessed as accumulation at S phase at 8 uM incubated for 2 days by propidium iodide staining based flow cytometry method (reference value: 24.65%); type: functional
[44] = system: HepG2; experiment: Induction of cell cycle arrest in human HepG2 cells assessed as accumulation at G0/G1 phase at 8 uM incubated for 2 days by propidium iodide staining based flow cytometry method (reference value: 64.6%); type: functional
[45] = system: HepG2; experiment: Induction of cell cycle arrest in human HepG2 cells assessed as accumulation at G2/M phase at 4 uM incubated for 2 days by propidium iodide staining based flow cytometry method (reference value: 10.75%); type: functional
[46] = system: HepG2; experiment: Induction of cell cycle arrest in human HepG2 cells assessed as accumulation at S phase at 4 uM incubated for 2 days by propidium iodide staining based flow cytometry method (reference value: 24.65%); type: functional
[47] = system: HepG2; experiment: Induction of cell cycle arrest in human HepG2 cells assessed as accumulation at G0/G1 phase at 4 uM incubated for 2 days by propidium iodide staining based flow cytometry method (reference value: 64.6%); type: functional
[48] = system: HepG2; experiment: Reduction in TERT protein expression in human HepG2 cells at 2 to 12 uM incubated for 2 days by Western blot method; type: functional, cell-based
[49] = system: HepG2; experiment: Induction of cell cycle arrest in human HepG2 cells assessed as accumulation at G2/M phase at 8 uM incubated for 2 days by propidium iodide staining based flow cytometry method (reference value: 10.75%); type: functional

- Activity [31]: Active
- Activity [39]: Active
SMILES: O=C(Nc1ccc(OCCN2CCCC2)cc1)c1ccc2ccc3ccc(C(=O)Nc4ccc(OCCN5CCCC5)cc4)nc3c2n1
- Activity [1]: 5.2%
- Activity [2]: 15.13%
- Activity [3]: Dose-dependent effect
- IC50 [4]: 2000 nM
- inhibition [5]: inactive
- inhibition [6]: Dose-dependent effect
- Activity [7]: inactive
- inhibition [8]: Dose-dependent effect
- Activity [9]: 28.2%
- Activity [10]: 19.4%
- Activity [11]: Dose-dependent effect
- Activity [12]: 19.9%
- IC50 [13]: 2100 nM
- Activity [14]: 6%
- Activity [15]: Dose-dependent effect
- Activity [16]: 78.4%
- Activity [17]: 65.1%
- Activity [18]: 25.69%
- Activity [19]: 55.76%
- IC50 [20]: 500 nM
- Activity [21]: 73.9%
- Activity [22]: 5.4%
- Activity [23]: 46.6%
- Activity [24]: Dose-dependent effect
- Activity [25]: 5.3%
- inhibition [26]: Active
- inhibition [27]: Dose-dependent effect
- inhibition [28]: Active
- Activity [29]: Active
- Activity [30]: 18.55%
- Activity [32]: 14.4%
- inhibition [33]: Active
- Activity [34]: 10.8%
- inhibition [35]: Active
- Activity [36]: 20%
- Activity [37]: 1.1%
- Activity [38]: 9.5%
- Activity [40]: 10.7%
- Activity [41]: 64.97%

- Activity [31]: Active
- Activity [39]: Active
SMILES: O=C(CCN1CCCC1)Nc1cccc(NC(=O)c2ccc3ccc4ccc(C(=O)Nc5cccc(NC(=O)CCN6CCCC6)n5)nc4c3n2)n1
- Activity [1]: 9.3%
- Activity [3]: Dose-dependent effect
- IC50 [4]: 1570 nM
- inhibition [5]: inactive
- inhibition [6]: Dose-dependent effect
- inhibition [42]: Active
- Activity [7]: inactive
- inhibition [8]: Dose-dependent effect
- Activity [9]: 33.7%
- Activity [10]: 4.9%
- IC50 [13]: 830 nM
- Activity [14]: 5.2%
- Activity [43]: 38.57%
- Activity [16]: 84.2%
- Activity [17]: 81.7%
- IC50 [20]: 1260 nM
- Activity [21]: 39.5%
- Activity [22]: 7.5%
- Activity [23]: 39.6%
- Activity [44]: 42.26%
- Activity [25]: 5%
- inhibition [26]: Active
- inhibition [27]: Dose-dependent effect
- Activity [29]: Active
- Activity [45]: 13.82%
- Activity [32]: 31.6%
- Activity [34]: 3.3%
- Activity [46]: 26.82%
- Activity [47]: 59.87%
- inhibition [35]: Active
- Activity [36]: 17.4%
- Activity [37]: 10.2%
- Activity [38]: 8.2%
- inhibition [48]: Active
- Activity [49]: 19.17%
- Activity [40]: 18.7%
